Assay results published in ChEMBL document CHEMBL4311957, “Recent advances in natural antifungal flavonoids and their derivatives” (Bioorg Med Chem Lett, 2019).
≈ marks a conversion by molar mass, not a printed value.

Experiments:
Candida tropicalis [1] = assay: Antifungal activity against FLC-resistant Candida tropicalis in presence of FLC; type: functional
Candida tropicalis [2] = assay: Antifungal activity against FLC-resistant Candida tropicalis; type: functional
Candida albicans [3] = assay: Antifungal activity against Candida albicans ATCC 10231 by microdilution method; type: functional
Cryptococcus gattii = assay: Antifungal activity against Cryptococcus gattii after 72 hrs; type: functional, Cryptococcus gattii VGI
Candida albicans [4] = assay: Antifungal activity against Candida albicans 53 by microdilution method; type: functional
Nakaseomyces glabratus [5] = assay: Antifungal activity against Candida glabrata 507 by microdilution method; type: functional
Candida tropicalis [6] = assay: Antifungal activity against Candida tropicalis 166 by microdilution method; type: functional
Nakaseomyces glabratus [7] = assay: Antifungal activity against Candida glabrata 493 by microdilution method; type: functional
Candida albicans [8] = assay: Antifungal activity against Candida albicans 501 by microdilution method; type: functional
Cryptococcus neoformans [9] = assay: Antifungal activity against Cryptococcus neoformans after 72 hrs; type: functional
Trichophyton rubrum [10] = assay: Antifungal activity against Trichophyton rubrum after 5 days; type: functional; details: 120 h
Nakaseomyces glabratus [11] = assay: Antifungal activity against Candida glabrata 482 by microdilution method; type: functional
Nakaseomyces glabratus [12] = assay: Antifungal activity against Candida glabrata 587 by microdilution method; type: functional
Pichia kudriavzevii [13] = assay: Antifungal activity against Candida krusei 168 by microdilution method; type: functional
Candida parapsilosis [14] = assay: Antifungal activity against Candida parapsilosis 96 by microdilution method; type: functional; details: Lodderomyces parapsilosis
Nakaseomyces glabratus [15] = assay: Antifungal activity against Candida glabrata 531 by microdilution method; type: functional
Nakaseomyces glabratus [16] = assay: Antifungal activity against Candida glabrata 510 by microdilution method; type: functional
Candida albicans [17] = assay: Antifungal activity against Candida albicans 498 by microdilution method; type: functional
Nakaseomyces glabratus [18] = assay: Antifungal activity against Candida glabrata ATCC 90030; type: functional
Nakaseomyces glabratus [19] = assay: Antifungal activity against Candida glabrata WT-5; type: functional
Candida albicans [20] = assay: Antifungal activity against Candida albicans NBRC 1385 by microdilution method; type: functional
Aspergillus fumigatus = assay: Antifungal activity against Aspergillus fumigatus NBRC 4400 by microdilution method; type: functional
Candida parapsilosis [21] = assay: Antifungal activity against Candida parapsilosis ATCC 22014; type: functional; details: Lodderomyces parapsilosis
Pichia kudriavzevii [22] = assay: Antifungal activity against Candida krusei ATCC 6258; type: functional
[23] = system: Trichophyton mentagrophytes; assay: Antifungal activity against Trichophyton mentagrophytes IFM 46027 by microdilution method; type: functional
Pichia kudriavzevii [24] = assay: Antifungal activity against Candida krusei CK25; type: functional
Trichophyton rubrum [25] = assay: Antifungal activity against Trichophyton rubrum NBRC 5467 by microdilution method; type: functional
Candida parapsilosis [26] = assay: Antifungal activity against Candida parapsilosis 90/2224; type: functional; details: Lodderomyces parapsilosis
Candida albicans [27] = assay: Antifungal activity against Candida albicans after 48 hrs by broth micro dilution method; type: functional
Cryptococcus neoformans [28] = assay: Antifungal activity against Cryptococcus neoformans after 48 hrs by broth micro dilution method; type: functional
Candida parapsilosis [29] = assay: Antifungal activity against Candida parapsilosis after 48 hrs by broth micro dilution method; type: functional; details: Lodderomyces parapsilosis
Candida albicans [30] = assay: Antifungal activity against Candida albicans; type: functional, organism-based
Trichophyton rubrum [31] = assay: Antifungal activity against Trichophyton rubrum; type: functional
Candida tropicalis [32] = assay: Antifungal activity against Candida tropicalis CCC 131-2000 after 48 hrs by CLSI-based broth microdilution method; type: functional; details: CCC 131-2000, 48 h
[33] = system: Trichophyton mentagrophytes; assay: Antifungal activity against Trichophyton mentagrophytes after 5 days; type: functional; details: 120 h
Nannizzia gypsea = assay: Antifungal activity against Microsporum gypseum after 5 days; type: functional; details: 120 h
Saccharomyces cerevisiae = assay: Antifungal activity against Saccharomyces cerevisiae ATCC 9763 after 48 hrs by CLSI-based broth microdilution method; type: functional; details: ATCC 9763, 48 h
Cryptococcus neoformans [34] = assay: Antifungal activity against Cryptococcus neoformans ATCC 32264 after 48 hrs by CLSI-based broth microdilution method; type: functional; details: ATCC 32264, 48 h
Trichophyton tonsurans = assay: Antifungal activity against Trichophyton tonsurans after 5 days; type: functional; details: 120 h
Candida albicans [35] = assay: Antifungal activity against Candida albicans ATCC 10231 after 48 hrs by CLSI-based broth microdilution method; type: functional; details: ATCC 10231, 48 h

Structure (SMILES) | MIC (Candida albicans [3]) | MIC (Candida albicans [4]) | MIC (Nakaseomyces glabratus [5]) | MIC (Candida tropicalis [6]) | MIC (Nakaseomyces glabratus [7]) | MIC (Candida albicans [8]) | MIC (Nakaseomyces glabratus [11]) | MIC (Nakaseomyces glabratus [12]) | MIC (Candida parapsilosis [14]) | MIC (Nakaseomyces glabratus [15]) | MIC (Nakaseomyces glabratus [16]) | MIC (Candida albicans [17]) | MIC (Nakaseomyces glabratus [18]) | also measured
Oc1cc(O)c2c(c1)O[C@H](c1ccc(O)c(O)c1)[C@@H](O)C2 [CIANIDANOL] |  |  |  |  |  |  |  |  |  |  |  |  |  | MIC (Candida tropicalis [1]): ≤ 16 µg/mL
O=C(O[C@@H]1Cc2c(O)cc(O)cc2O[C@@H]1c1cc(O)c(O)c(O)c1)c1cc(O)c(O)c(O)c1 [EPIGALOCATECHIN GALLATE] |  |  |  |  |  |  |  |  |  |  |  |  |  | MIC (Candida tropicalis [2]): ≤ 1 µg/mL
O=c1c(O)c(-c2ccc(O)c(O)c2)oc2cc(O)ccc12 [FISETIN] | > 83 µg/mL | > 83 µg/mL | 7.8 to 15.6 µg/mL (≈ 27.2 to 54.5 µM) | > 83 µg/mL | 7.8 to 15.6 µg/mL (≈ 27.2 to 54.5 µM) | > 83 µg/mL | 7.8 to 15.6 µg/mL (≈ 27.2 to 54.5 µM) | 7.8 to 15.6 µg/mL (≈ 27.2 to 54.5 µM) | > 83 µg/mL | 7.8 to 15.6 µg/mL (≈ 27.2 to 54.5 µM) | 7.8 to 15.6 µg/mL (≈ 27.2 to 54.5 µM) | > 83 µg/mL |  | MIC (Cryptococcus gattii): 128 µg/mL (≈ 447 µM); MIC (Cryptococcus neoformans [9]): 128 µg/mL (≈ 447 µM); MIC (Trichophyton rubrum [10]): 64 µg/mL (≈ 224 µM); MIC (Pichia kudriavzevii [13]): > 83 µg/mL
O=c1cc(-c2ccccc2)oc2ccccc12 [FLAVONE] | > 83 µg/mL | > 83 µg/mL | 62.5 µg/mL (≈ 281 µM) | > 83 µg/mL | 62.5 µg/mL (≈ 281 µM) | > 83 µg/mL | 62.5 µg/mL (≈ 281 µM) | 62.5 µg/mL (≈ 281 µM) | > 83 µg/mL | 62.5 µg/mL (≈ 281 µM) | 62.5 µg/mL (≈ 281 µM) | > 83 µg/mL | 52.7 µg/mL (≈ 237 µM) | MIC (Nakaseomyces glabratus [19]): 52.7 µg/mL (≈ 237 µM); MIC (Candida albicans [20]): 30 µM (≈ 6.67 µg/mL); MIC50 (Candida tropicalis [6]): 13 to 104 µg/mL (≈ 58.5 to 468 µM); MIC (Aspergillus fumigatus): 230 µM (≈ 51.1 µg/mL); MIC (Candida parapsilosis [21]): 5.4 µg/mL (≈ 24.3 µM); MIC (Pichia kudriavzevii [22]): 2.7 µg/mL (≈ 12.1 µM); MIC [23]: 60 µM (≈ 13.3 µg/mL); MIC50 (Candida parapsilosis [14]): 13 to 104 µg/mL (≈ 58.5 to 468 µM); MIC (Pichia kudriavzevii [24]): 2.7 µg/mL (≈ 12.1 µM); MIC (Trichophyton rubrum [25]): 120 µM (≈ 26.7 µg/mL); MIC (Candida parapsilosis [26]): 5.4 µg/mL (≈ 24.3 µM)
O=c1c(O[C@@H]2O[C@H](CO)[C@H](O)[C@H](O)[C@H]2O)c(-c2ccc(O)c(O)c2)oc2cc(O)cc(O)c12 [HYPEROSIDE] |  |  |  |  |  |  |  |  |  |  |  |  |  | MIC (Candida albicans [27]): 256 µg/mL (≈ 551 µM); MIC (Cryptococcus neoformans [28]): 128 µg/mL (≈ 276 µM); MIC (Candida parapsilosis [29]): 128 µg/mL (≈ 276 µM)
C=CC(C)(C)c1cc(/C=C/C(=O)c2ccc(O)cc2)c(OC)cc1O [LICOAGROCHACONE A] |  |  |  |  |  |  |  |  |  |  |  |  |  | MFC (Candida albicans [30]): 150 µM (≈ 50.8 µg/mL); MIC (Candida albicans [30]): 62.4 to 150 µM (≈ 21.1 to 50.8 µg/mL); MIC (Trichophyton rubrum [31]): 11.5 µM
O=c1cc(-c2ccc(O)c(O)c2)oc2cc(O)cc(O)c12 [LUTEOLIN] | > 83 µg/mL | > 83 µg/mL | 3.9 to 7.8 µg/mL (≈ 13.6 to 27.2 µM) | > 83 µg/mL | 3.9 to 7.8 µg/mL (≈ 13.6 to 27.2 µM) | > 83 µg/mL | 3.9 to 7.8 µg/mL (≈ 13.6 to 27.2 µM) | 3.9 to 7.8 µg/mL (≈ 13.6 to 27.2 µM) | > 83 µg/mL | 3.9 to 7.8 µg/mL (≈ 13.6 to 27.2 µM) | 3.9 to 7.8 µg/mL (≈ 13.6 to 27.2 µM) | > 83 µg/mL | 52.7 µg/mL (≈ 184 µM) | MIC (Trichophyton rubrum [31]): 250 µg/mL; MIC (Nakaseomyces glabratus [19]): 52.7 µg/mL (≈ 184 µM); MIC (Candida albicans [20]): 30 µM (≈ 8.59 µg/mL); MIC50 (Candida tropicalis [6]): 13 to 104 µg/mL (≈ 45.4 to 363 µM); MIC (Aspergillus fumigatus): 230 µM (≈ 65.8 µg/mL); MIC (Candida parapsilosis [21]): 5.4 µg/mL (≈ 18.9 µM); MIC (Pichia kudriavzevii [22]): 2.7 µg/mL (≈ 9.43 µM); MIC [23]: 60 µM (≈ 17.2 µg/mL); MIC50 (Candida parapsilosis [14]): 13 to 104 µg/mL (≈ 45.4 to 363 µM); MIC (Pichia kudriavzevii [24]): 2.7 µg/mL (≈ 9.43 µM); MIC (Trichophyton rubrum [25]): 120 µM (≈ 34.3 µg/mL); MIC (Candida parapsilosis [26]): 5.4 µg/mL (≈ 18.9 µM)
O=c1c(O)c(-c2cc(O)c(O)c(O)c2)oc2cc(O)cc(O)c12 [MYRICETIN] | 16 to 64 µg/mL (≈ 50.3 to 201 µM) | 16 to 64 µg/mL (≈ 50.3 to 201 µM) | 3.9 to 15.7 µg/mL (≈ 12.3 to 49.3 µM) | 64 µg/mL (≈ 201 µM) | 3.9 to 15.7 µg/mL (≈ 12.3 to 49.3 µM) | 16 to 64 µg/mL (≈ 50.3 to 201 µM) | 3.9 to 15.7 µg/mL (≈ 12.3 to 49.3 µM) | 3.9 to 15.7 µg/mL (≈ 12.3 to 49.3 µM) | 16 µg/mL (≈ 50.3 µM) | 3.9 to 15.7 µg/mL (≈ 12.3 to 49.3 µM) | 3.9 to 15.7 µg/mL (≈ 12.3 to 49.3 µM) | 16 to 64 µg/mL (≈ 50.3 to 201 µM) | 6.79 µg/mL (≈ 21.3 µM) | MIC (Candida tropicalis [32]): 31.2 µg/mL (≈ 98 µM); MIC (Cryptococcus gattii): 128 µg/mL (≈ 402 µM); MIC [33]: 4 to 128 µg/mL (≈ 12.6 to 402 µM); MIC (Cryptococcus neoformans [9]): 8 to 128 µg/mL (≈ 25.1 to 402 µM); MIC (Nannizzia gypsea): 4 to 128 µg/mL (≈ 12.6 to 402 µM); MIC (Trichophyton rubrum [10]): 4 to 128 µg/mL (≈ 12.6 to 402 µM); MIC (Saccharomyces cerevisiae): 31.2 µg/mL (≈ 98 µM); MIC (Cryptococcus neoformans [34]): 31.2 µg/mL (≈ 98 µM); MIC (Pichia kudriavzevii [13]): 64 µg/mL (≈ 201 µM); MIC (Trichophyton tonsurans): 4 to 128 µg/mL (≈ 12.6 to 402 µM); MIC (Candida albicans [35]): 31.2 µg/mL (≈ 98 µM)
C[C@@H]1O[C@@H](OC[C@H]2O[C@@H](Oc3c(-c4ccc(O)c(O)c4)oc4cc(O)cc(O)c4c3=O)[C@H](O)[C@@H](O)[C@@H]2O)[C@H](O)[C@H](O)[C@H]1O [RUTIN] |  |  |  |  |  |  |  |  |  |  |  |  |  | MIC (Candida albicans [27]): > 256 µg/mL; MIC (Cryptococcus neoformans [28]): > 256 µg/mL; MIC (Candida parapsilosis [29]): > 256 µg/mL
